In ChEMBL document CHEMBL1255467, “Comparative in vitro antimicrobial activities of torezolid (TR-700), the active moiety of a new oxazolidinone, torezolid phosphate (TR-701), determination of tentative disk diffusion interpretive criteria, and quality control ranges” (2010):
Converted amounts (≈) assume the structure as drawn.

What was measured:
Staphylococcus sp. [1] = test: Antimicrobial activity against methicillin-susceptible coagulase-negative Staphylococcus by broth dilution method; format: functional
Staphylococcus aureus [2] = test: Antimicrobial activity against linezolid-resistant Staphylococcus aureus by broth dilution method; format: functional
Haemophilus influenzae [3] = test: Antimicrobial activity against beta-lactamase negative Haemophilus influenzae by broth dilution method; format: functional
Staphylococcus aureus [4] = test: Antimicrobial activity against vancomycin-nonsusceptible Staphylococcus aureus by broth dilution method; format: functional
Enterococcus faecium [5] = test: Antimicrobial activity against vancomycin-resistant Enterococcus faecium by broth dilution method; format: functional
Streptococcus pneumoniae [6] = test: Antimicrobial activity against Streptococcus pneumoniae by broth dilution method; format: functional
Streptococcus sp = test: Antimicrobial activity against streptococcal sp. by broth dilution method
Streptococcus pneumoniae [7] = test: Antimicrobial activity against penicillin-susceptible Streptococcus pneumoniae by broth dilution method; format: functional
Staphylococcus aureus [8] = test: Antimicrobial activity against methicillin-susceptible Staphylococcus aureus by broth dilution method; format: functional
Moraxella catarrhalis = test: Antimicrobial activity against Moraxella catarrhalis by broth dilution method; format: functional
Staphylococcus aureus [9] = test: Antimicrobial activity against methicillin-resistant Staphylococcus aureus by broth dilution method; format: functional
Corynebacterium jeikeium = test: Antimicrobial activity against Corynebacterium jeikeium by broth dilution method; format: functional
Staphylococcus sp. [10] = test: Antimicrobial activity against methicillin-resistant coagulase-negative Staphylococcus by broth dilution method; format: functional
Streptococcus pneumoniae [11] = test: Antimicrobial activity against penicillin-resistant Streptococcus pneumoniae by broth dilution method; format: functional
Enterococcus faecium [12] = test: Antimicrobial activity against vancomycin-susceptible Enterococcus faecium by broth dilution method; format: functional
Haemophilus influenzae [13] = test: Antimicrobial activity against ampicillin-nonsusceptible beta-lactamase negative Haemophilus influenzae by broth dilution method; format: functional
Streptococcus viridans = test: Antimicrobial activity against Streptococcus viridans by broth dilution method; format: functional
Streptococcus pneumoniae [14] = test: Antimicrobial activity against penicillin-intermediate Streptococcus pneumoniae by broth dilution method; format: functional
Haemophilus influenzae [15] = test: Antimicrobial activity against beta-lactamase positive Haemophilus influenzae by broth dilution method; format: functional
Enterococcus faecalis [16] = test: Antimicrobial activity against vancomycin-susceptible Enterococcus faecalis by broth dilution method; format: functional
Enterococcus faecalis [17] = test: Antimicrobial activity against vancomycin-resistant Enterococcus faecalis by broth dilution method; format: functional
Enterococcus sp. = test: Antimicrobial activity against Enterococcus by broth dilution method; format: functional
Staphylococcus sp. [18] = test: Antimicrobial activity against Staphylococcus sp. by broth dilution method; format: functional
Listeria monocytogenes = test: Antimicrobial activity against Listeria monocytogenes by broth dilution method; format: functional
Haemophilus influenzae [19] = test: Antimicrobial activity against Haemophilus influenzae by broth dilution method; format: functional
Staphylococcus aureus [20] = test: Antimicrobial activity against Staphylococcus aureus by broth dilution method; format: functional
[21] = Haemophilus influenzae, read-out: MIC90

## C[C@H]1COc2c(N3CCN(C)CC3)c(F)cc3c(=O)c(C(=O)O)cn1c23.C[C@H]1COc2c(N3CCN(C)CC3)c(F)cc3c(=O)c(C(=O)O)cn1c23.O [LEVOFLOXACIN]
Staphylococcus sp. [1]; Staphylococcus sp.
  MIC50: 0.25 µg/mL
  MIC90: 0.5 µg/mL
Staphylococcus aureus [2]
  MIC50: > 16 µg/mL
Haemophilus influenzae [3]; Haemophilus influenzae
  MIC: 0.12 µg/mL
  MIC50: 0.12 µg/mL
  MIC90: 0.12 µg/mL
Staphylococcus aureus [4]; Staphylococcus aureus
  MIC50: 16 µg/mL
  MIC90: > 16 µg/mL
Enterococcus faecium [5]
  MIC50: > 16 µg/mL
Streptococcus pneumoniae [6]; Streptococcus pneumoniae
  MIC50: 1 µg/mL
  MIC90: 1 µg/mL
Streptococcus sp; Streptococcus sp.
  MIC50: 1 µg/mL
  MIC90: 1 µg/mL
Streptococcus pneumoniae [7]; Streptococcus pneumoniae
  MIC50: 1 µg/mL
  MIC90: 1 µg/mL
Staphylococcus aureus [8]; Staphylococcus aureus
  MIC50: 0.25 µg/mL
  MIC90: 4 µg/mL
Moraxella catarrhalis
  MIC50: 0.06 µg/mL
  MIC90: 0.06 µg/mL
Staphylococcus aureus [9]; Staphylococcus aureus
  MIC50: 8 µg/mL
Corynebacterium jeikeium
  MIC: > 16 µg/mL
  MIC50: > 16 µg/mL
  MIC90: > 16 µg/mL
Staphylococcus sp. [10]
  MIC50: 8 µg/mL
Streptococcus pneumoniae [11]
  MIC50: 1 µg/mL
  MIC90: 1 µg/mL
Enterococcus faecium [12]; Enterococcus faecium
  MIC50: 4 µg/mL
  MIC90: > 16 µg/mL
Haemophilus influenzae [13]; Haemophilus influenzae
  MIC: 0.12 µg/mL
  MIC50: 0.12 µg/mL
  MIC90: 0.12 µg/mL
Streptococcus viridans
  MIC50: 1 µg/mL
  MIC90: 2 µg/mL
Streptococcus pneumoniae [14]; Streptococcus pneumoniae
  MIC50: 1 µg/mL
  MIC90: 1 µg/mL
Haemophilus influenzae [15]; Haemophilus influenzae
  MIC: 0.12 µg/mL
  MIC50: 0.12 µg/mL
Haemophilus influenzae [15]; [21]
  MIC90: 0.12 µg/mL
Enterococcus faecalis [16]; Enterococcus faecalis
  MIC50: 1 µg/mL
  MIC90: > 16 µg/mL
Enterococcus faecalis [17]
  MIC50: > 16 µg/mL
Enterococcus sp.; Enterococcus sp.
  MIC50: > 16 µg/mL
  MIC90: > 16 µg/mL
Staphylococcus sp. [18]; Staphylococcus sp.
  MIC50: 0.5 µg/mL
  MIC90: > 16 µg/mL
Listeria monocytogenes
  MIC: 1 µg/mL
  MIC50: 1 µg/mL
  MIC90: 1 µg/mL
Haemophilus influenzae [19]; Haemophilus influenzae
  MIC: 0.12 µg/mL
  MIC50: 0.12 µg/mL
  MIC90: 0.12 µg/mL
Staphylococcus aureus [20]; Staphylococcus aureus
  MIC50: 4 µg/mL
  MIC90: > 16 µg/mL

## Cn1nnc(-c2ccc(-c3ccc(N4C[C@H](CO)OC4=O)cc3F)cn2)n1 [TEDIZOLID]
Staphylococcus sp. [1]
  MBC50: 16 µg/mL (≈ 43.2 µM)
  MBC90: 32 µg/mL (≈ 86.4 µM)
Staphylococcus sp. [1]; Staphylococcus sp.
  MBC: > 2 µg/mL
  MIC50: 0.25 µg/mL (≈ 0.675 µM)
  MIC90: 0.5 µg/mL (≈ 1.35 µM)
Staphylococcus aureus [2]
  MBC: > 16 µg/mL
  MIC50: 4 µg/mL (≈ 10.8 µM)
  MIC90: 8 µg/mL (≈ 21.6 µM)
Haemophilus influenzae [3]
  MBC50: >32 µg/mL
  MBC90: >32 µg/mL
Haemophilus influenzae [3]; Haemophilus influenzae
  MBC: > 16 µg/mL
  MIC50: 8 µg/mL (≈ 21.6 µM)
  MIC90: 16 µg/mL (≈ 43.2 µM)
Staphylococcus aureus [4]
  MBC50: 0.5 µg/mL (≈ 1.35 µM)
  MBC90: 1 µg/mL (≈ 2.7 µM)
Staphylococcus aureus [4]; Staphylococcus aureus
  MBC: 0.5 µg/mL (≈ 1.35 µM)
  MIC50: 0.25 µg/mL (≈ 0.675 µM)
  MIC90: 1 µg/mL (≈ 2.7 µM)
Enterococcus faecium [5]
  MBC: 1 µg/mL (≈ 2.7 µM)
  MIC50: 0.5 µg/mL (≈ 1.35 µM)
  MIC90: 0.5 µg/mL (≈ 1.35 µM)
Streptococcus pneumoniae [6]
  MBC50: 1 µg/mL (≈ 2.7 µM)
  MBC90: 2 µg/mL (≈ 5.4 µM)
Streptococcus pneumoniae [6]; Streptococcus pneumoniae
  MBC: 0.5 µg/mL (≈ 1.35 µM)
  MIC50: 0.25 µg/mL (≈ 0.675 µM)
  MIC90: 0.25 µg/mL (≈ 0.675 µM)
Streptococcus sp
  MBC50: 1 µg/mL (≈ 2.7 µM)
  MBC90: 16 µg/mL (≈ 43.2 µM)
Streptococcus sp; Streptococcus sp.
  MBC: 0.5 µg/mL (≈ 1.35 µM)
  MIC50: 0.25 µg/mL (≈ 0.675 µM)
  MIC90: 0.25 µg/mL (≈ 0.675 µM)
Streptococcus pneumoniae [7]
  MBC50: 1 µg/mL (≈ 2.7 µM)
  MBC90: 4 µg/mL (≈ 10.8 µM)
Streptococcus pneumoniae [7]; Streptococcus pneumoniae
  MBC: 0.5 µg/mL (≈ 1.35 µM)
  MIC50: 0.25 µg/mL (≈ 0.675 µM)
  MIC90: 0.25 µg/mL (≈ 0.675 µM)
Staphylococcus aureus [8]
  MBC50: 16 µg/mL (≈ 43.2 µM)
  MBC90: 32 µg/mL (≈ 86.4 µM)
Staphylococcus aureus [8]; Staphylococcus aureus
  MBC: 1 µg/mL (≈ 2.7 µM)
  MIC: 0.25 µg/mL (≈ 0.675 µM)
  MIC50: 0.25 µg/mL (≈ 0.675 µM)
  MIC90: 0.5 µg/mL (≈ 1.35 µM)
Moraxella catarrhalis
  MIC50: 4 µg/mL (≈ 10.8 µM)
  MIC90: 4 µg/mL (≈ 10.8 µM)
Staphylococcus aureus [9]
  MBC50: 2 µg/mL (≈ 5.4 µM)
Staphylococcus aureus [9]; Staphylococcus aureus
  MIC50: 0.5 µg/mL (≈ 1.35 µM)
  MIC90: 1 µg/mL (≈ 2.7 µM)
Corynebacterium jeikeium
  MIC: 0.25 µg/mL (≈ 0.675 µM)
  MIC50: 0.25 µg/mL (≈ 0.675 µM)
  MIC90: 0.5 µg/mL (≈ 1.35 µM)
Staphylococcus sp. [10]
  MIC50: 0.25 µg/mL (≈ 0.675 µM)
  MIC90: 0.5 µg/mL (≈ 1.35 µM)
Streptococcus pneumoniae [11]
  MBC: 1 µg/mL (≈ 2.7 µM)
  MIC50: 0.25 µg/mL (≈ 0.675 µM)
  MIC90: 0.25 µg/mL (≈ 0.675 µM)
Enterococcus faecium [12]
  MBC50: 32 µg/mL (≈ 86.4 µM)
  MBC90: 32 µg/mL (≈ 86.4 µM)
Enterococcus faecium [12]; Enterococcus faecium
  MBC: 16 µg/mL (≈ 43.2 µM)
  MIC50: 0.5 µg/mL (≈ 1.35 µM)
  MIC90: 0.5 µg/mL (≈ 1.35 µM)
Haemophilus influenzae [13]
  MBC50: >32 µg/mL
  MBC90: >32 µg/mL
Haemophilus influenzae [13]; Haemophilus influenzae
  MBC: > 8 µg/mL
  MIC50: 8 µg/mL (≈ 21.6 µM)
  MIC90: 16 µg/mL (≈ 43.2 µM)
Streptococcus viridans
  MIC50: 0.25 µg/mL (≈ 0.675 µM)
  MIC90: 0.25 µg/mL (≈ 0.675 µM)
Streptococcus pneumoniae [14]
  MBC50: 1 µg/mL (≈ 2.7 µM)
  MBC90: 1 µg/mL (≈ 2.7 µM)
Streptococcus pneumoniae [14]; Streptococcus pneumoniae
  MBC: 0.5 µg/mL (≈ 1.35 µM)
  MIC50: 0.25 µg/mL (≈ 0.675 µM)
  MIC90: 0.5 µg/mL (≈ 1.35 µM)
Haemophilus influenzae [15]
  MBC50: >32 µg/mL
  MIC90: >32 µg/mL
Haemophilus influenzae [15]; Haemophilus influenzae
  MBC: > 32 µg/mL
  MIC50: 8 µg/mL (≈ 21.6 µM)
Haemophilus influenzae [15]; [21]
  MIC90: 32 µg/mL (≈ 86.4 µM)
Enterococcus faecalis [16]
  MBC50: 32 µg/mL (≈ 86.4 µM)
  MBC90: 32 µg/mL (≈ 86.4 µM)
Enterococcus faecalis [16]; Enterococcus faecalis
  MBC: 16 µg/mL (≈ 43.2 µM)
  MIC50: 0.5 µg/mL (≈ 1.35 µM)
  MIC90: 0.5 µg/mL (≈ 1.35 µM)
Enterococcus faecalis [17]
  MBC: > 16 µg/mL
  MIC50: 0.5 µg/mL (≈ 1.35 µM)
  MIC90: 0.5 µg/mL (≈ 1.35 µM)
Enterococcus sp.
  MBC50: 32 µg/mL (≈ 86.4 µM)
  MBC90: 32 µg/mL (≈ 86.4 µM)
Enterococcus sp.; Enterococcus sp.
  MBC: > 1 µg/mL
  MIC50: 0.5 µg/mL (≈ 1.35 µM)
  MIC90: 0.5 µg/mL (≈ 1.35 µM)
Staphylococcus sp. [18]
  MBC50: 8 µg/mL (≈ 21.6 µM)
  MBC90: 32 µg/mL (≈ 86.4 µM)
Staphylococcus sp. [18]; Staphylococcus sp.
  MBC: > 0.5 µg/mL
  MIC50: 0.25 µg/mL (≈ 0.675 µM)
  MIC90: 0.5 µg/mL (≈ 1.35 µM)
Listeria monocytogenes
  MIC: 0.25 µg/mL (≈ 0.675 µM)
  MIC50: 0.25 µg/mL (≈ 0.675 µM)
  MIC90: 0.25 µg/mL (≈ 0.675 µM)
Haemophilus influenzae [19]
  MBC50: >32 µg/mL
  MBC90: >32 µg/mL
Haemophilus influenzae [19]; Haemophilus influenzae
  MBC: > 8 µg/mL
  MIC50: 8 µg/mL (≈ 21.6 µM)
  MIC90: 16 µg/mL (≈ 43.2 µM)
Staphylococcus aureus [20]
  MBC50: 4 µg/mL (≈ 10.8 µM)
  MBC90: 16 µg/mL (≈ 43.2 µM)
Staphylococcus aureus [20]; Staphylococcus aureus
  MBC: > 0.5 µg/mL
  MIC50: 0.5 µg/mL (≈ 1.35 µM)
  MIC90: 0.5 µg/mL (≈ 1.35 µM)
